ChEMBL document CHEMBL1138410, “SAR studies of 3-arylpropionic acids as potent and selective agonists of sphingosine-1-phosphate receptor-1 (S1P1) with enhanced pharmacokinetic properties” (Bioorg Med Chem Lett, 2007)
Several values for one entry are separate records, joined by “and”; a condition that tells them apart may be missing. Equal entries are not always repeated.

Legend:
[1] = biological target: Sphingosine 1-phosphate receptor 5 (Homo sapiens, UniProt Q9H228); experiment: […] of [35S]GTP-gamma-S from human S1P5 receptor expressed in CHO cells; assay type: functional, cell-based
[2] = biological target: Sphingosine 1-phosphate receptor 1 (Homo sapiens, UniProt P21453); experiment: […] of [35S]GTPgammaS from human S1P1 receptor expressed in CHO cells; assay type: functional, cell-based
[3] = (§1) Bioavailability in Sprague-Dawley rat at 2.0 mg/kg, po; assay type: ADME, organism-based; conditions: Sprague-Dawley, in vivo
[4] = (§2) Half life in Sprague-Dawley rat at 1.0 mg/kg, iv or 2.0 mg/kg, po; assay type: ADME, organism-based; conditions: Sprague-Dawley, in vivo
[5] = biological target: Sphingosine 1-phosphate receptor 2 (Homo sapiens, UniProt O95136); experiment: Displacement of [33P]S1P from human S1P2 receptor expressed in CHO cells; assay type: cell-based
[6] = Plasma clearance in Sprague-Dawley rat at 1.0 mg/kg, iv or 2.0 mg/kg, po; assay type: ADME, organism-based
[7] = (§3) Volume of distribution at steady state in Sprague-Dawley rat at 1.0 mg/kg, iv or 2.0 mg/kg, po; assay type: ADME, organism-based; conditions: Sprague-Dawley, in vivo, read-out: Vdss
[8] = biological target: T1, Sphingosine 1-phosphate receptor 4 (Homo sapiens, UniProt O95977); experiment: Displacement of [33P]S1P from human S1P4 receptor expressed in CHO cells; assay type: cell-based
T1 sequence (O95977 whole entry): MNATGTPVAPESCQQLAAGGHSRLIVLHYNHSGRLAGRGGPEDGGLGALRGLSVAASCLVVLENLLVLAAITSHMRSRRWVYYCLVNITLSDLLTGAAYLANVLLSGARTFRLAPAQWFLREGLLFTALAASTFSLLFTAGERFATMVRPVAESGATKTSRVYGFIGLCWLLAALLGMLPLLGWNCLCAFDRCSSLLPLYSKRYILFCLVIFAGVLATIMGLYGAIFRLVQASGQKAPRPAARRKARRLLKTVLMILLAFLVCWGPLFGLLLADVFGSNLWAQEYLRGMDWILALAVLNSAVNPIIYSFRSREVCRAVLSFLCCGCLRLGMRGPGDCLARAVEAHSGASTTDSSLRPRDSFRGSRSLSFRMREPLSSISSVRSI

Mus musculus = experiment: Effect on peripheral lymphocyte lowering in orally dosed mouse; assay type: functional
[9] = biological target: Sphingosine 1-phosphate receptor 3 (Homo sapiens, UniProt Q99500); experiment: […] of [35S]GTP-gamma-S from human S1P3 receptor expressed in CHO cells; assay type: functional, cell-based
Rattus norvegicus [10] = experiment: as §1; assay type: ADME, organism-based; conditions: in vivo
Rattus norvegicus [11] = experiment: as §2; assay type: ADME, organism-based; conditions: in vivo
Rattus norvegicus [12] = experiment: as §3; assay type: ADME, organism-based; conditions: in vivo
[13] = Mus musculus, po, read-out: ED50

Sphingosine 1-phosphate receptor 5, sequence (Q9H228 whole entry): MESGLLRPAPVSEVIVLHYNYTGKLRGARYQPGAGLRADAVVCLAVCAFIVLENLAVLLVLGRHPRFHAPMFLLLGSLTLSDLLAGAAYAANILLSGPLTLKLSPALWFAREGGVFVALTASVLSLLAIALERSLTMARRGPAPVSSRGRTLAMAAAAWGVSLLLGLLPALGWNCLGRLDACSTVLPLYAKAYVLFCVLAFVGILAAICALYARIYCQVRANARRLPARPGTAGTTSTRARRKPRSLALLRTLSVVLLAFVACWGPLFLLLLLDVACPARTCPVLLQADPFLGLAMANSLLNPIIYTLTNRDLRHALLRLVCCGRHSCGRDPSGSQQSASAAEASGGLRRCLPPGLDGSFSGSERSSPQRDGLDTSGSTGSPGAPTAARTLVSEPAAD
Sphingosine 1-phosphate receptor 1, sequence (P21453 whole entry): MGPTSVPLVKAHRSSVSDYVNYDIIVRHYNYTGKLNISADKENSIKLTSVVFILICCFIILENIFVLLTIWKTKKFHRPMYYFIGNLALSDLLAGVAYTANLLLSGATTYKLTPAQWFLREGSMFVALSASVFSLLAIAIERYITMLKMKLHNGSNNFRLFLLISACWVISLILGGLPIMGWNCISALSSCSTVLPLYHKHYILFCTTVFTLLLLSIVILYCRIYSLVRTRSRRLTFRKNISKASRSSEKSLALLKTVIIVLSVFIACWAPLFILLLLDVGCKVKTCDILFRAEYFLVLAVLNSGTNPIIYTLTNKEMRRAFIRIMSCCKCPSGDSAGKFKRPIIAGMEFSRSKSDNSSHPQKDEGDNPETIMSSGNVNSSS
Sphingosine 1-phosphate receptor 3, sequence (Q99500 whole entry): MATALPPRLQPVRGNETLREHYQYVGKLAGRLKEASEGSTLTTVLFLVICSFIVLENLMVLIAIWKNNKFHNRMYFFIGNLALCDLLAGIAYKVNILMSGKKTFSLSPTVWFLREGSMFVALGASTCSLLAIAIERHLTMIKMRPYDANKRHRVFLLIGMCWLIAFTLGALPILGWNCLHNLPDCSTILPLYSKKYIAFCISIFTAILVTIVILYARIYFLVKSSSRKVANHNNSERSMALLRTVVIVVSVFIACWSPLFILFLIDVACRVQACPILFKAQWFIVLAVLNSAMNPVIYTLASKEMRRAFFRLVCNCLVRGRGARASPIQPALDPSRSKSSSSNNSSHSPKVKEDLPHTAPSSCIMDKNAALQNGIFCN
Sphingosine 1-phosphate receptor 2, sequence (O95136 whole entry): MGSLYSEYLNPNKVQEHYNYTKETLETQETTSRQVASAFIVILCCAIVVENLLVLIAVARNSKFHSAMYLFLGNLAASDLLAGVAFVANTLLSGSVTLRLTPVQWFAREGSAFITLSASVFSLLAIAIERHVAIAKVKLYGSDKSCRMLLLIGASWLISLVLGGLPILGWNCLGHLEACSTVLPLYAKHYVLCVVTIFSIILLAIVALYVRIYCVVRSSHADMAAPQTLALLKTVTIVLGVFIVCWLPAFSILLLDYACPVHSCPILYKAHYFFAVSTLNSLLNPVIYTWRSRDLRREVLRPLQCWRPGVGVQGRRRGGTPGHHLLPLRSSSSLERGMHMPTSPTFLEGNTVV

SMILES	EC50 [1] [nM]	EC50 [2]	bioavailability [3] [%]	half-life [4] [h]	IC50 [5] [nM]	clearance [6] [mL/min/kg]	Vd [7] [L/kg]	IC50 [8] [nM]	ED50 (Mus musculus; [13]) [mg/kg]	EC50 [9]	F (Rattus norvegicus [10]) [%]	t1/2 (Rattus norvegicus [11]) [h]	Vdss (Rattus norvegicus [12])	ED50 (Mus musculus) [mg/kg]
Cc1cc(C(C)CC(=O)O)ccc1-c1noc(-c2ccc(OC(C)C)c(C(F)(F)F)c2)n1 (stereo not drawn)	3.9	0.12 nM	100	3.1	> 10000	2.9	0.6	> 10000	0.1	184 nM				
Cc1cc(CCC(=O)O)ccc1-c1noc(-c2ccc(OC(C)C)c(C#N)c2)n1		0.08 nM			> 10000			> 10000	0.1					
Cc1cc([C@@H]2C[C@H]2C(=O)O)ccc1-c1noc(-c2ccc(OC(C)C)c(C#N)c2)n1		0.93 nM and 0.31 nM	84	4.9	> 10000			> 10000	0.3	2660 nM and 2600 nM and > 10000 nM	90	5.9	1 L/kg and 0.4 L/kg	0.2
Cc1cc(CCC(=O)O)ccc1-c1noc(-c2ccc(OC(C)C)c(C(F)(F)F)c2)n1		0.08 nM			> 10000			> 10000	0.3					
Cc1cc(CC(C)C(=O)O)ccc1-c1noc(-c2ccc(OC(C)C)c(C(F)(F)F)c2)n1 (stereo not drawn)	9.9	0.3 nM	82	1.7	> 10000	7	1.5	> 10000	0.1	400 nM				
Cc1cc([C@@H]2C[C@H]2C(=O)O)ccc1-c1noc(-c2ccc(OC(C)C)c(C(F)(F)F)c2)n1	5.1		88	6.3	> 10000	2.4	1.1	> 10000	0.2	123 nM				
Cc1nc(CCC(=O)O)ccc1-c1noc(-c2ccc(OC(C)C)c(C#N)c2)n1	28.6	0.44 nM	93	2.4	> 10000	1.2	0.3	> 10000	0.2	2760 nM				
Cc1cc([C@H]2C[C@H]2C(=O)O)ccc1-c1noc(-c2ccc(OC(C)C)c(C#N)c2)n1	37.7	0.8 nM	89	7.4	> 10000	1.2	0.7	> 10000	0.7	> 1000 nM				
